Assay results taken from patent US20260042755A1, “GPR6 INVERSE AGONISTS” (MapLight Therapeutics, Inc., priority 2022, published 2026).

Experiments:
[1] = target: T1, GPR6 (Homo sapiens, UniProt P46095); assay: GPR6 antagonist functional cAMP assay (LANCE Ultra cAMP TR-FRET, CHO cells stably expressing GPR6); format: cell-based
T1 construct: expressed in transfected cells; host or cells: CHO cells
Summary of the method: (§1)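 Stable CHO-GPR6 or CHO-GPR3 cells (10,000/well) in Krebs-Ringer buffer with 0.1% BSA and 150 μM Ro 20-1724 were exposed to compounds for 45 min at 37° C (0.1% DMSO). cAMP read by LANCE Ultra TR-FRET; IC50 from 4-parameter fit normalized to DMSO and reference compounds.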

[2] = target: T2, GPR3 (Homo sapiens, UniProt P46089); assay: GPR3 antagonist functional cAMP assay (LANCE Ultra cAMP TR-FRET, CHO cells stably expressing GPR3); format: cell-based
T2 construct: expressed in transfected cells; host or cells: CHO cells
Summary of the method: as §1

[3] = CHO cells stably expressing GPR6, cAMP assay (Example 24)
[4] = CHO cells stably expressing GPR3, cAMP assay (Example 24)
[5] = CHO cells stably expressing GPR6, cAMP assay
[6] = CHO cells stably expressing GPR3, cAMP assay
[7] = procedure as described in Example 24

T1 sequence (P46095 whole entry): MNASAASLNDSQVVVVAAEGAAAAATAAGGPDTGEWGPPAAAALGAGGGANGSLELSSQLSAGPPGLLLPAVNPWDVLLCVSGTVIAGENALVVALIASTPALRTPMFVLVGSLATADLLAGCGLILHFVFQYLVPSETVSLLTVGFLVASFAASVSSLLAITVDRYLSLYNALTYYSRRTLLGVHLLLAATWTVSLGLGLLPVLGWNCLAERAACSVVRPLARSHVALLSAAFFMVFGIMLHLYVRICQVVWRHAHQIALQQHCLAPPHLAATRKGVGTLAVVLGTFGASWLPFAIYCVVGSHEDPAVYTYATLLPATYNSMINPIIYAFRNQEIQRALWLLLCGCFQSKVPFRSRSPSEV
T2 sequence (P46089 whole entry, species assumed): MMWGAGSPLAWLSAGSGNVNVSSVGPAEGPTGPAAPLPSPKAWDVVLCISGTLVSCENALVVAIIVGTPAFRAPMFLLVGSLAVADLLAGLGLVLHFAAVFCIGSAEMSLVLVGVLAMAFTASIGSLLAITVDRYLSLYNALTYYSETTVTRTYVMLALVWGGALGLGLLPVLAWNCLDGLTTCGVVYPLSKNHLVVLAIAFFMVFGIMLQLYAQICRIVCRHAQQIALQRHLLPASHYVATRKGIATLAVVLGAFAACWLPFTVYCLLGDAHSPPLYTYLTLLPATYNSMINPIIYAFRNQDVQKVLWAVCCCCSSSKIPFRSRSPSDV

How did the IC50 ([1]; procedure of Example 24) turn out when `Cn1cc(-c2nc3cnc(C(O)CN)cc3nc2N2CCC(Oc3ccc(F)cc3F)CC2)cn1` (stereo not shown) [Compound 309, 2-amino-1-(2-(4-(2,4-difluorophenoxy)piperidin-1-yl)-3-(1-methyl-1H-pyrazol-4-yl)pyrido[3,4-b]pyrazin-7-yl)ethan-1-ol] was run?
Its IC50 is 100 to 1000 nM.

What about the IC50 ([2]; procedure of Example 24) of the same molecule?
The IC50 was 1000 to 30000 nM.

What does the source list for `CC(=O)N1CCc2nc(N3CCC(Oc4ccc(F)cc4F)CC3)c(-c3cccc(C(O)C(F)F)n3)nc2C1` (stereo not shown) [Compound 210, 1-(3-[6-(2,2-difluoro-1-hydroxyethyl)pyridin-2-yl]-2-[4-(2,4-difluorophenoxy)piperidin-1-yl]-5H,6H,7H,8H-pyrido[3,4-b]pyrazin-6-yl)ethan-1-one]?
IC50 [1, 3]: 1000 to 30000 nM; IC50 [2, 4]: 1000 to 30000 nM

Which IC50 [1, 3] does the source give for `OCCN1CCc2nc(N3CCC(Oc4ccc(F)cc4F)CC3)c(-c3cn[nH]c3)nc2C1` [Compound 141, 2-{2-[4-(2,4-difluorophenoxy)piperidin-1-yl]-3-(1H-pyrazol-4-yl)-5H,6H,7H,8H-pyrido[3,4-b]pyrazin-6-yl}ethan-1-ol] here?
Its IC50 is 1000 to 30000 nM.

What about the IC50 [2, 4] of the same molecule?
The IC50 was 1000 to 30000 nM.

What does the source list for `CC(=O)N1CCc2nc(N3CCN(Cc4ccc[nH]c4=O)CC3)c(-c3cnn(C)c3)nc2C1` [Compound 531, 3-({4-[6-acetyl-3-(1-methyl-4-pyrazolyl)-5,6,7,8-tetrahydro-1,4,6-triaza-2-naphthyl]-1-piperazinyl}methyl)-2(1H)-pyridinone]?
IC50 [1, 5]: ≥ 30000 nM; IC50 [2, 6]: ≥ 30000 nM

For `Cn1cc(-c2nc3cnc(N)cc3nc2N2CCC(Oc3cc(Cl)ccc3Cl)CC2)cn1` [Compound 443, 2-[4-(2,5-dichlorophenoxy)piperidin-1-yl]-3-(1-methyl-1H-pyrazol-4-yl)pyrido[3,4-b]pyrazin-7-amine], which IC50 [1, 3] is on record?
The IC50 was 1000 to 30000 nM.

And the IC50 [2, 4]?
Its IC50 is 1000 to 30000 nM.

What does the source list for `CC(C)(O)[C@H](O)c1cc2nc(-c3cn[nH]c3)c(N3CCN(Cc4ccc(F)cc4F)CC3)nc2cn1` (single isomer, unassigned) [Compound 799]?
IC50 ([1]; procedure of Example 24): 1000 to 30000 nM; IC50 ([2]; procedure of Example 24): 1000 to 30000 nM

With `CC(=O)N1CCc2nc(N3CCC(COc4cccc(F)c4)C3)c(-c3cnn(C)c3)nc2C1` (stereo not shown) [Compound 324, 1-(2-{3-[(3-fluorophenoxy)methyl]pyrrolidin-1-yl}-3-(1-methyl-1H-pyrazol-4-yl)-5H,6H,7H,8H-pyrido[3,4-b]pyrazin-6-yl)ethan-1-one] as the molecule, how does the IC50 ([1]; procedure of Example 24) read?
The IC50 was 1000 to 30000 nM.

And the IC50 ([2]; procedure of Example 24)?
The IC50 was 1000 to 30000 nM.

What does the source list for `CCn1cc(-c2nc3c(nc2N2CCN(C(=O)c4ccc(Cl)c(C)c4)CC2)CCN(C(C)=O)C3)cn1` [Compound 550, 1-{2-[4-(4-chloro-3-toluoyl)-1-piperazinyl]-3-(1-ethyl-4-pyrazolyl)-5,6,7,8-tetrahydro-1,4,6-triaza-6-naphthyl}-1-ethanone]?
IC50 [1, 5]: 1000 to 30000 nM; IC50 [2, 6]: 1000 to 30000 nM

For `Cn1cc(-c2nc3cc([C@H](O)C(C)(C)O)ncc3nc2N2CCN(Cc3ccc(F)cc3F)CC2)cn1` (stereo in doubt) [Compound 370, (Rel-S)-1-(3-(4-(2,4-difluorobenzyl)piperazin-1-yl)-2-(1-methyl-1H-pyrazol-4-yl)pyrido[3,4-b]pyrazin-7-yl)-2-methylpropane-1,2-diol], which IC50 ([1]; procedure of Example 24) is on record?
Its IC50 is less than 100 nM.

And the IC50 ([2]; procedure of Example 24)?
Its IC50 is 1000 to 30000 nM.

What does the source list for `CC(=O)N1CCc2nc(N3CCC(Oc4ccc(F)cc4F)CC3)c(-c3cccc(C(=O)N(C)C)n3)nc2C1` [Compound 131, 6-(6-acetyl-2-(4-(2,4-difluorophenoxy)piperidin-1-yl)-5,6,7,8-tetrahydropyrido[3,4-b]pyrazin-3-yl)-N,N-dimethylpicolinamide]?
IC50 [1, 3]: 1000 to 30000 nM; IC50 [2, 4]: 1000 to 30000 nM

Which results are given for `Cn1cc(-c2nc3cncc(Cl)c3nc2N2CCC(Oc3ccc(F)cc3F)CC2)cn1` [Compound 411, 1-[8-chloro-3-(1-methyl-1H-pyrazol-4-yl)pyrido[3,4-b]pyrazin-2-yl]-4-(2,4-difluorophenoxy)piperidine]?
IC50 [1, 3]: 1000 to 30000 nM; IC50 [2, 4]: 1000 to 30000 nM

Which results are given for `COCn1ccnc1-c1nc2ccncc2nc1N1CCN(Cc2ccc(F)cc2Cl)CC1` [Compound 28, 1-[(2-chloro-4-fluorophenyl)methyl]-4-{2-[1-(methoxymethyl)-1H-imidazol-2-yl]pyrido[3,4-b]pyrazin-3-yl}piperazine]?
IC50 [1, 7]: ≥ 30000 nM; IC50 [2, 7]: 100 to 1000 nM

`CC(=O)N1CCc2nc(N3CCC(Oc4ccc(F)cc4F)CC3)c(-c3cncc(Cl)n3)nc2C1` [Compound 243] was tested. Which IC50 [1, 3] did it give?
The IC50 was 1000 to 30000 nM.

What about the IC50 [2, 4] of the same molecule?
The IC50 was 1000 to 30000 nM.

What does the source list for `CC(=O)N1CCc2nc(N3CCC(Oc4ccc(F)cc4F)CC3)c(-c3cncc(C)n3)nc2C1` [Compound 444, 1-{2-[4-(2,4-difluorophenoxy)piperidin-1-yl]-3-(6-methylpyrazin-2-yl)-5H,6H,7H,8H-pyrido[3,4-b]pyrazin-6-yl}ethan-1-one]?
IC50 [1, 3]: 1000 to 30000 nM; IC50 [2, 4]: 1000 to 30000 nM

How did the IC50 ([1]; procedure of Example 24) turn out when `CC(C)(O)COc1cc2nc(-c3cnn(CF)c3)c(N3CCN(Cc4ccc(F)cc4F)CC3)nc2cn1` [Compound 798, 1-(3-{4-[(2,4-difluorophenyl)methyl]-1-piperazinyl}-2-[1-(fluoromethyl)-4-pyrazolyl]-1,4,6-triaza-7-naphthyloxy)-2-methyl-2-propanol] was run?
The IC50 was 100 to 1000 nM.

And the IC50 ([2]; procedure of Example 24)?
The IC50 was 1000 to 30000 nM.

With `CC(=O)N1CCc2nc(N3CCN(Cc4ccc(F)cc4C)CC3)c(-c3cnn(C)c3)nc2C1` [Compound 347, 1-(2-{4-[(4-fluoro-2-methylphenyl)methyl]piperazin-1-yl}-3-(1-methyl-1H-pyrazol-4-yl)-5H,6H,7H,8H-pyrido[3,4-b]pyrazin-6-yl)ethan-1-one] as the molecule, how does the IC50 ([1]; procedure of Example 24) read?
The IC50 was 1000 to 30000 nM.

And the IC50 ([2]; procedure of Example 24)?
The IC50 was 1000 to 30000 nM.

What does the source list for `Cn1cc(-c2nc3cncc(N)c3nc2N2CCC(Oc3ccc(F)cc3F)CC2)cn1` [Compound 459, 2-[4-(2,4-difluorophenoxy)piperidin-1-yl]-3-(1-methyl-1H-pyrazol-4-yl)pyrido[3,4-b]pyrazin-8-amine]?
IC50 [1, 3]: 100 to 1000 nM; IC50 [2, 4]: 1000 to 30000 nM

`CC(=O)N1CCc2nc(N3CCC(Oc4ccc(F)cc4F)CC3)c(-c3cncc(Cl)c3)nc2C1` [Compound 136, 1-[3-(5-chloropyridin-3-yl)-2-[4-(2,4-difluorophenoxy)piperidin-1-yl]-5H,6H,7H,8H-pyrido[3,4-b]pyrazin-6-yl]ethan-1-one] was tested. Which IC50 [1, 3] did it give?
Its IC50 is 100 to 1000 nM.

And the IC50 [2, 4]?
The IC50 was 1000 to 30000 nM.

With `COc1cncc(-c2nc3cnc(C)cc3nc2N2CCC(Oc3ccc(F)cc3F)CC2)n1` [Compound 230, 2-{2-[4-(2,4-difluorophenoxy)piperidin-1-yl]-7-methylpyrido[3,4-b]pyrazin-3-yl}-6-methoxypyrazine] as the molecule, how does the IC50 [1, 3] read?
The IC50 was 1000 to 30000 nM.

What about the IC50 [2, 4] of the same molecule?
Its IC50 is 1000 to 30000 nM.

What does the source list for `COc1ccc(CN2CCN(c3nc4c(nc3-c3cnn(C)c3)CN(C(C)=O)CC4)CC2)c(OC)c1` [Compound 322, 1-(2-{4-[(2,4-dimethoxyphenyl)methyl]piperazin-1-yl}-3-(1-methyl-1H-pyrazol-4-yl)-5H,6H,7H,8H-pyrido[3,4-b]pyrazin-6-yl)ethan-1-one]?
IC50 ([1]; procedure of Example 24): ≥ 30000 nM; IC50 ([2]; procedure of Example 24): 1000 to 30000 nM

How did the IC50 [1, 3] turn out when `N#CN1CCc2nc(N3CCC(Oc4ccc(F)cc4F)CC3)c(-c3cn[nH]c3)nc2C1` [Compound 171, 2-[4-(2,4-difluorophenoxy)piperidin-1-yl]-3-(1H-pyrazol-4-yl)-5H,6H,7H,8H-pyrido[3,4-b]pyrazine-6-carbonitrile] was run?
Its IC50 is less than 100 nM.

And the IC50 [2, 4]?
Its IC50 is 1000 to 30000 nM.

For `CCc1cccc(-c2nc3c(nc2N2CCC(Oc4ccc(F)cc4F)CC2)CCN(C(C)=O)C3)n1` [Compound 477, 1-{2-[4-(2,4-difluorophenoxy)piperidin-1-yl]-3-(6-ethylpyridin-2-yl)-5H,6H,7H,8H-pyrido[3,4-b]pyrazin-6-yl}ethan-1-one], which IC50 [1, 3] is on record?
Its IC50 is 1000 to 30000 nM.

And the IC50 [2, 4]?
The IC50 was 1000 to 30000 nM.

For `CCn1cc(-c2nc3cc(C(C)(O)C(C)(C)O)ncc3nc2N2CCC(Oc3ccc(F)cc3F)CC2)cn1` (single isomer, unassigned) [Compound 740], which IC50 ([1]; procedure of Example 24) is on record?
The IC50 was 100 to 1000 nM.

And the IC50 ([2]; procedure of Example 24)?
The IC50 was 1000 to 30000 nM.

With `CC(=O)N1CCc2nc(N3CCN(Cc4cc(F)ccc4Cl)CC3)c(-c3cnn(C)c3)nc2C1` [Compound 506, 1-(2-{4-[(2-chloro-5-fluorophenyl)methyl]-1-piperazinyl}-3-(1-methyl-4-pyrazolyl)-5,6,7,8-tetrahydro-1,4,6-triaza-6-naphthyl)-1-ethanone] as the molecule, how does the IC50 [1, 5] read?
Its IC50 is 100 to 1000 nM.

What about the IC50 [2, 6] of the same molecule?
The IC50 was 1000 to 30000 nM.

With `CC(=O)N1Cc2nc(-c3cnn(C)c3)c(N3CCC(Oc4ccc(F)cc4F)CC3)nc2CC1C` (single isomer, unassigned) [Compound 445] as the molecule, how does the IC50 [1, 3] read?
Its IC50 is 100 to 1000 nM.

And the IC50 [2, 4]?
Its IC50 is 1000 to 30000 nM.

How did the IC50 ([1]; procedure of Example 24) turn out when `CC(C)(O)C(=O)c1cc2nc(N3CCC(Oc4ccc(F)cc4F)CC3)c(-c3cnn(C(F)F)c3)nc2cn1` [Compound 616, 1-{3-[1-(difluoromethyl)-4-pyrazolyl]-2-[4-(2,4-difluorophenoxy)-1-piperidyl]-1,4,6-triaza-7-naphthyl}-2-hydroxy-2-methyl-1-propanone] was run?
Its IC50 is 100 to 1000 nM.

And the IC50 ([2]; procedure of Example 24)?
The IC50 was 1000 to 30000 nM.

`COCC(=O)N1CCc2nc(N3CCC(Oc4ccc(F)cc4F)CC3)c(-c3ccc(F)c(N)n3)nc2C1` [Compound 628, 1-{3-(6-amino-5-fluoro-2-pyridyl)-2-[4-(2,4-difluorophenoxy)-1-piperidyl]-5,6,7,8-tetrahydro-1,4,6-triaza-6-naphthyl}-2-methoxy-1-ethanone] was tested. Which IC50 ([1]; procedure of Example 24) did it give?
The IC50 was 100 to 1000 nM.

What about the IC50 ([2]; procedure of Example 24) of the same molecule?
The IC50 was 1000 to 30000 nM.

Which IC50 [1, 3] does the source give for `Cn1cc(-c2nc3c(nc2N2CCC(Oc4ccc(F)cc4F)CC2)CCN(S(C)(=O)=O)C3)cn1` [Compound 211, 4-(2,4-difluorophenoxy)-1-[6-methanesulfonyl-3-(1-methyl-1H-pyrazol-4-yl)-5H,6H,7H,8H-pyrido[3,4-b]pyrazin-2-yl]piperidine] here?
Its IC50 is less than 100 nM.

What about the IC50 [2, 4] of the same molecule?
The IC50 was 1000 to 30000 nM.

What does the source list for `CC(=O)N1CCc2nc(N3CCC(C(C)c4ccc(F)cc4F)CC3)c(-c3cnn(C)c3)nc2C1` (stereo not shown) [Compound 790, 1-(2-{4-[1-(2,4-difluorophenyl)ethyl]-1-piperidyl}-3-(1-methyl-4-pyrazolyl)-5,6,7,8-tetrahydro-1,4,6-triaza-6-naphthyl)-1-ethanone]?
IC50 ([1]; procedure of Example 24): 100 to 1000 nM; IC50 ([2]; procedure of Example 24): 1000 to 30000 nM
